ChEMBL document CHEMBL6134851, “Comparative Study on Covalent and Noncovalent Endogenous Albumin-Binding β-Glucuronidase-Activated SN38 Prodrugs for Antitumor Efficacy” (J Med Chem, 2025)
Active and inactive are the calls of the source. The calls are words filed in the database; no cut-off is given here.

Experiments:
[1] = target: Albumin (Homo sapiens, UniProt P02768); experiment: Binding affinity to human serum albumin assessed as binding rate measured within 4 mins by HPLC analysis relative to control; format: ADME; conditions: isolated protein
[2] = test system: A549; experiment: Antiproliferative activity against human A549 cells assessed as reduction in cell viability measured after 72 hrs in presence of beta-glucuronidase by MTT assay; format: functional, cell-based
[3] = test system: 4T1; experiment: Antiproliferative activity against mouse 4T1 cells assessed as reduction in cell viability treated with HSA bound prodrug measured after 72 hrs by MTT assay; format: functional, cell-based
[4] = test system: A549; experiment: Antiproliferative activity against human A549 cells assessed as reduction in cell viability measured after 72 hrs by MTT assay; format: functional, cell-based
[5] = Toxicity in female BALB/cA nude mouse assessed as fibrotic changes in liver at 25 mg/kg, iv administered once a week for 35 days by H and E staining based analysis; format: organism-based; conditions: in vivo, 840 h, time 35 day
[6] = test system: HepG2; experiment: Antiproliferative activity against human HepG2 cells assessed as reduction in cell viability measured after 72 hrs by MTT assay; format: functional, cell-based
[7] = test system: A549; experiment: Antiproliferative activity against human A549 cells assessed as reduction in cell viability treated with HSA bound prodrug measured after 72 hrs in presence of beta-glucuronidase by MTT assay; format: functional, cell-based
[8] = test system: BXPC-3; experiment: Antitumor activity against human BXPC-3 cells xenografted in female BALB/cA nude mouse model assessed as suppression of tumor growth by measuring relative tumor proliferation rate at 25 mg/kg, iv measured after 24 days relative to control; format: functional; conditions: time 24 day
[9] = test system: HCT-116; experiment: Antiproliferative activity against human HCT-116 cells assessed as reduction in cell viability treated with HSA bound prodrug measured after 72 hrs in presence of beta-glucuronidase by MTT assay; format: functional, cell-based
[10] = test system: HepG2; experiment: Antiproliferative activity against human HepG2 cells assessed as reduction in cell viability treated with HSA bound prodrug measured after 72 hrs by MTT assay; format: functional, cell-based
[11] = Toxicity in female BALB/cA nude mouse assessed as appearance of inflammatory lesions in spleen at 25 mg/kg, iv administered once a week for 35 days by H and E staining based analysis; format: organism-based; conditions: in vivo, 840 h, time 35 day
[12] = test system: HepG2; experiment: Antiproliferative activity against human HepG2 cells assessed as reduction in cell viability treated with HSA bound prodrug measured after 72 hrs in presence of beta-glucuronidase by MTT assay; format: functional, cell-based
[13] = test system: BXPC-3; experiment: Antiproliferative activity against human BXPC-3 cells assessed as reduction in cell viability treated with HSA bound prodrug measured after 72 hrs in presence of beta-glucuronidase by MTT assay; format: functional, cell-based
[14] = test system: 4T1; experiment: Antiproliferative activity against mouse 4T1 cells assessed as reduction in cell viability measured after 72 hrs in presence of beta-glucuronidase by MTT assay; format: functional, cell-based
[15] = test system: HepG2; experiment: Antiproliferative activity against human HepG2 cells assessed as reduction in cell viability measured after 72 hrs in presence of beta-glucuronidase by MTT assay; format: functional, cell-based
[16] = test system: HCT-116; experiment: Antiproliferative activity against human HCT-116 cells assessed as reduction in cell viability measured after 72 hrs by MTT assay; format: functional, cell-based
[17] = Prodrug release in human plasma assessed as (S)-4,11-diethyl-4,9-dihydroxy-1,12-dihydro-14H-pyrano[3',4':6,7]indolizino[1,2-b]quinoline-3,14(4H)-dione release measured after 7 days relative to control; format: ADME, cell-free; conditions: 168 h, time 7 day
[18] = Toxicity in female BALB/cA nude mouse assessed as appearance of inflammatory lesions in heart at 25 mg/kg, iv administered once a week for 35 days by H and E staining based analysis; format: organism-based; conditions: in vivo, 840 h, time 35 day
[19] = test system: A549; experiment: Antiproliferative activity against human A549 cells assessed as reduction in cell viability treated with HSA bound prodrug measured after 72 hrs by MTT assay; format: functional, cell-based
[20] = Toxicity in female BALB/cA nude mouse assessed as animal fatality at 25 mg/kg, iv administered once a week for 35 days; format: organism-based; conditions: in vivo, 840 h, time 35 day
[21] = test system: HCT-116; experiment: Antiproliferative activity against human HCT-116 cells assessed as reduction in cell viability treated with HSA bound prodrug measured after 72 hrs by MTT assay; format: functional, cell-based
[22] = Drug uptake in human HCT-116 cells assessed as increase in fluorescence intensity measured after 1 to 6 hrs by confocal microscopy analysis; format: ADME, cell-based; conditions: time 1-6 hrs
[23] = test system: 4T1; experiment: Antiproliferative activity against mouse 4T1 cells assessed as reduction in cell viability measured after 72 hrs by MTT assay; format: functional, cell-based
[24] = test system: BXPC-3; experiment: Antiproliferative activity against human BXPC-3 cells assessed as reduction in cell viability treated with HSA bound prodrug measured after 72 hrs by MTT assay; format: functional, cell-based
[25] = test system: 4T1; experiment: Antiproliferative activity against mouse 4T1 cells assessed as reduction in cell viability treated with HSA bound prodrug measured after 72 hrs in presence of beta-glucuronidase by MTT assay; format: functional, cell-based
[26] = test system: HCT-116; experiment: Antiproliferative activity against human HCT-116 cells assessed as reduction in cell viability measured after 72 hrs in presence of beta-glucuronidase by MTT assay; format: functional, cell-based
[27] = Toxicity in female BALB/cA nude mouse assessed as fibrotic changes in tumor at 38 mg/kg, iv administered once a week for 35 days by H and E staining based analysis; format: organism-based; conditions: in vivo, 840 h, time 35 day
[28] = Toxicity in female BALB/cA nude mouse assessed as appearance of fibrosis in heart at 38 mg/kg, iv measured after 24 hrs by H and E staining based analysis; format: organism-based; conditions: in vivo
[29] = Toxicity in female BALB/cA nude mouse assessed as appearance of inflammatory lesions in lung at 38 mg/kg, iv administered once a week for 35 days by H and E staining based analysis; format: organism-based; conditions: in vivo, 840 h, time 35 day
[30] = Toxicity in female BALB/cA nude mouse assessed as fibrotic changes in kidney at 38 mg/kg, iv administered once a week for 35 days by H and E staining based analysis; format: organism-based; conditions: in vivo, 840 h, time 35 day
[31] = Cmax in female BALB/c mouse at 38 mg/kg measured up to 168 hrs by HPLC analysis; format: ADME, organism-based; conditions: in vivo
[32] = Toxicity in female BALB/cA nude mouse assessed as effect on body weight loss at 38 mg/kg, iv administered twice per week measured after 107 days; format: organism-based; conditions: in vivo, 2568 h, time 107 day
[33] = test system: BXPC-3; experiment: Antitumor activity against human BXPC-3 cells xenografted in female BALB/cA nude mouse model assessed as suppression of tumor growth by measuring relative tumor proliferation rate at 38 mg/kg, iv measured after 17 days relative to control; format: functional; conditions: time 17 day
[34] = Toxicity in female BALB/cA nude mouse assessed as fibrotic changes in heart at 38 mg/kg, iv administered once a week for 35 days by H and E staining based analysis; format: organism-based; conditions: in vivo, 840 h, time 35 day
[35] = test system: HCT-116; experiment: Antitumor activity against human HCT-116 cells xenografted in female BALB/cA nude mouse model assessed as relative tumor proliferation rate at 38 mg/kg, iv administered twice per week measured after 24 days relative to control; format: functional; conditions: time 24 day
[36] = Toxicity in female BALB/cA nude mouse assessed as damage in heart at 38 mg/kg, iv measured after 24 hrs by H and E staining based analysis; format: organism-based; conditions: in vivo
[37] = Toxicity in female BALB/cA nude mouse assessed as mortality at 38 mg/kg, iv administered twice per week measured after 107 days; format: organism-based; conditions: in vivo, 2568 h, time 107 day
[38] = Toxicity in female BALB/cA nude mouse assessed as effect on body weight loss at 38 mg/kg, iv administered twice per week measured for 107 days; format: organism-based; conditions: in vivo, 2568 h, time 107 day

Sequence of Albumin (P02768 whole entry): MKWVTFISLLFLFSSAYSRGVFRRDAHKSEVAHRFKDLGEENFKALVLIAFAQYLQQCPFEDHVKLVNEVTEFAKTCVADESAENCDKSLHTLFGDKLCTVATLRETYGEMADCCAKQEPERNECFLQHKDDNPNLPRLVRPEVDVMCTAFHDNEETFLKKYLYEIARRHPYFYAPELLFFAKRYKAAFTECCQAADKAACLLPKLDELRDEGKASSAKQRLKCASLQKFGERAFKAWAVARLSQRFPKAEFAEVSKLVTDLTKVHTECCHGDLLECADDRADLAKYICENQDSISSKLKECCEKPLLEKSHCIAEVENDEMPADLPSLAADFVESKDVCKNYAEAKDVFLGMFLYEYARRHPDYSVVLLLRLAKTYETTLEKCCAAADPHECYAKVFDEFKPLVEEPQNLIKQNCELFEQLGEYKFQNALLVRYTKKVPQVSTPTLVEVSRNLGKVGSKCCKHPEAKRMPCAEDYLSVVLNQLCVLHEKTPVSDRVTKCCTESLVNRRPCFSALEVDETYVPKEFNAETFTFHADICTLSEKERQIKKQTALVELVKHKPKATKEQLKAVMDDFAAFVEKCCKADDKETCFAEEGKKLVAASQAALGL

CCc1c2c(nc3ccc(OCc4ccc(O[C@@H]5O[C@H](C(=O)O)[C@@H](O)[C@H](O)[C@H]5O)c(NC(=O)CCNC(=O)CCCCCN5C(=O)C=CC5=O)c4)cc13)-c1cc3c(c(=O)n1C2)COC(=O)[C@]3(O)CC
Activity [1]: 99%
Activity [2]: Active
Activity [3]: inactive
Activity [4]: Not active; Compound Showed Lower Cytotoxicity Compared To Sn38
Activity [5]: Non-toxic
Activity [6]: Not active; Compound Showed Lower Cytotoxicity Compared To Sn38
Activity [7]: Active
Activity [8]: 8.97%
Activity [9]: Active
Activity [10]: inactive
Activity [11]: Non-toxic
Activity [12]: Active
Activity [13]: Active
Activity [14]: Active
Activity [15]: Active
Activity [16]: Not active; Compound Showed Lower Cytotoxicity Compared To Sn38
Drug metabolism [17]: metabolite_notdetected
Activity [18]: Non-toxic
Activity [19]: inactive
Activity [20]: Non-toxic
Activity [21]: inactive
Drug uptake [22]: Active
Activity [23]: Not active; Compound Showed Lower Cytotoxicity Compared To Sn38
Activity [24]: inactive
Activity [25]: Active
Activity [26]: Active

CCc1c2c(nc3ccc(OCc4ccc(O[C@@H]5O[C@H](C(=O)O)[C@@H](O)[C@H](O)[C@H]5O)c(NC(=O)CCNC(=O)COCCOCCNC(=O)COCCOCCNC(=O)CC[C@H](NC(=O)CCCCCCCCCCCCCCCCC(=O)O)C(=O)O)c4)cc13)-c1cc3c(c(=O)n1C2)COC(=O)[C@]3(O)CC
Activity [1]: 95%
Activity [2]: Active
Activity [3]: inactive
Activity [4]: Not active; Compound Showed Lower Cytotoxicity Compared To Sn38
Activity [6]: Not active; Compound Showed Lower Cytotoxicity Compared To Sn38
Activity [27]: Non-toxic
Activity [28]: Toxic
Activity [29]: Non-toxic
Activity [30]: Non-toxic
Activity [7]: Active
Cmax [31]: 112 µg/mL
Activity [9]: Active
Activity [10]: inactive
Activity [12]: Active
Activity [32]: Toxic
Activity [13]: Active
Activity [33]: 34.39%
Activity [14]: Active
Activity [34]: Non-toxic
Activity [15]: Active
Activity [35]: 10.59%
Activity [16]: Not active; Compound Showed Lower Cytotoxicity Compared To Sn38
Drug metabolism [17]: metabolite_notdetected
Activity [19]: inactive
Activity [21]: inactive
Drug uptake [22]: Active
Activity [36]: Toxic
Activity [37]: Non-toxic
Activity [23]: Not active; Compound Showed Lower Cytotoxicity Compared To Sn38
Activity [24]: inactive
Activity [25]: Active
Activity [38]: Non-toxic
Activity [26]: Active
